Assay type in all cases: in vivo, female NOD-SCID mice
Experiment [1] has as its system PVNS grafts. Nature of the experiment: PVNS-PDX tumor model, tumor growth / final tumor size. The settings on record: PVNS-PDX mice, 14 days of FK866 treatment, 30 mg/kg i.p. The text has this:
(§1) A PVNS-human-derived tissue xenograft (PDX) tumor model was established using female NOD-SCID gnotobiotic mice aged 5 to 6 weeks. The human-derived tissue was sourced from the tumor tissue of patients with a confirmed diagnosis of PVNS who underwent surgery. During the surgery, viable synovial tissue was collected and then transplanted to construct the PVNS-PDX tumor model. The mice were purchased from Vital River Laboratory Animal Technology Co., Ltd. (Beijing, China) and were housed in micro-isolator cages under specific pathogen-free conditions. Tumor grafts were prepared using sterile SmartFlow (Airtech, China). After removing the necrotic tissue, the tumor tissue was rinsed three times with physiological saline. Subsequently, the tumor mass was segmented into small pieces (diameter ranging from 1.0 to 3.0 mm) using a surgical blade. The tumor tissue (graft) was suspended in serum-free Dulbecco's Modified Eagle Medium and then cryopreserved for implantation. The surgery was carried out by using an anesthesia machine. Mice were anesthetized with 2.5% isoflurane and kept in a lateral position. The skin was sterilely prepared using surgical-grade povidone-iodine, and a small dorsal midline incision (approximately 20.0 mm) was made in the kidney area. […] Tumor size was measured under a microscope and calculated using the formula […], where L is the length and W is the width.

The subject of experiment [2] is JUND. Nature of the experiment: Western blot of JUND in synovium of PVNS-PDX mice. The settings on record: FK866 30 mg/kg i.p. twice daily, four consecutive days weekly, two weeks, compared to the PDX group. The source says:
A PVNS-human-derived tissue xenograft (PDX) tumor model was established using female NOD-SCID gnotobiotic mice aged 5 to 6 weeks. The human-derived tissue was sourced from the tumor tissue of patients with a confirmed diagnosis of PVNS who underwent surgery. During the surgery, viable synovial tissue was collected and then transplanted to construct the PVNS-PDX tumor model. The mice were purchased from Vital River Laboratory Animal Technology Co., Ltd. (Beijing, China) and were housed in micro-isolator cages under specific pathogen-free conditions. Tumor grafts were prepared using sterile SmartFlow (Airtech, China). After removing the necrotic tissue, the tumor tissue was rinsed three times with physiological saline. […] Tumor size was measured under a microscope and calculated using the formula […], where L is the length and W is the width.
Synovial tissue lysates were prepared using RIPA buffer supplemented with PMSF, incubated on ice, and physically sheared for 25 min. The proteins were extracted, and their concentration was measured using the BCA protein assay kit (Beyotime, P0011). […] Band intensity was quantified using ImageJ software version 1.39 V. The primary antibodies used were: anti-NAMPT (1:1000, ABclonal, A0256); anti-ITGA5 (1:1000, ABclonal, A19069); anti-JUND (1:1000, ABclonal, A5496); and anti-β-actin (1:1000, ABclonal, AC006).

Experiment [3] deals with JUND. Nature of the experiment: Immunohistochemistry of JUND in PVNS-PDX mice. The settings on record: FK866 30 mg/kg i.p. twice daily, four consecutive days weekly, two weeks, compared to the PDX group.
From the text: as §1, with “machine.” for “machine. Mice were anesthetized with 2.5% isoflurane and kept in a lateral position. The skin was sterilely prepared using surgical-grade povidone-iodine, and a small dorsal midline incision (approximately 20.0 mm) was made in the kidney area.”
The synovial tissue was fixed in 10% neutral buffered formalin for two days, followed by dehydration with a series of graded ethanol. […] The integrated optical density values of positive staining were evaluated using ImageJ software.

In experiment [4] the test system is PVNS grafts. Nature of the experiment: Vascular permeability assay (Evans blue) in PVNS grafts. The settings on record: PVNS-PDX mice, after 14 days of FK866 30 mg/kg i.p.; mean±S.E.M.; p<0.001 vs. PDX group (14.93±2.003).
From the text: as §1, with “machine.” for “machine. Mice were anesthetized with 2.5% isoflurane and kept in a lateral position. The skin was sterilely prepared using surgical-grade povidone-iodine, and a small dorsal midline incision (approximately 20.0 mm) was made in the kidney area.”
[…] The concentration of Evans blue in the tissue extract was measured using a microplate reader at a wavelength of 630 nm and a standard curve of Evans blue concentration. […]

In experiment [5] the test system is fibrinogen (FGB). Nature of the experiment: Immunofluorescence staining of FGB and CD31 in PVNS-PDX mice. The settings on record: FK866 30 mg/kg i.p., in contrast to the PDX group.
From the text: as §1, with “machine.” for “machine. Mice were anesthetized with 2.5% isoflurane and kept in a lateral position. The skin was sterilely prepared using surgical-grade povidone-iodine, and a small dorsal midline incision (approximately 20.0 mm) was made in the kidney area.”
The frozen tissue sections were thawed at room temperature for 1 hour. […] The tissue sections were observed using a fluorescence microscope, and the fluorescence intensity was assessed using ImageJ. […]

As to `O=C(/C=C/c1cccnc1)NCCCCC1CCN(C(=O)c2ccccc2)CC1` [FK866], in experiment [1], the Tumor growth result is listed as “significantly inhibited”. Also, in experiment [2], the “JUND expression (WB analysis)” value is on record as “significant decrease”. Further, the “JUND expression (IHC staining)” value in experiment [3] is on record as “notable reduction”. For the same compound, in experiment [4], the “Evan's blue dye concentration in PVNS grafts (vascular leakage)” value is given as 4.040±1.618 ng Evan's blue dye/mg tissue. Moreover, the “FGB deposition around the blood vessels (immunofluorescence)” value in experiment [5] is listed as “significantly reduced”.

The values are drawn from patent US20250360122A1, “USE OF NAMPT INHIBITORS IN THE MANUFACTURE OF MEDICAMENTS FOR PREVENTING AND/OR TREATING PIGMENTED VILLONODULAR SYNOVITIS” (WEST CHINA HOSPITAL, SICHUAN UNIVERSITY, priority 2024, published 2025).
